One may read the IC50 as the concentration that gives 50% inhibition. A high value points to weaker potency.

The experiment deals with T1, calpain I (Sus scrofa, UniProt P35750).
T1 construct: The calpain I from porcine erythrocytes; purchased CALBIOCHEM; host or cells: porcine erythrocytes (tissue-purified)
T1 sequence (P35750 1-714): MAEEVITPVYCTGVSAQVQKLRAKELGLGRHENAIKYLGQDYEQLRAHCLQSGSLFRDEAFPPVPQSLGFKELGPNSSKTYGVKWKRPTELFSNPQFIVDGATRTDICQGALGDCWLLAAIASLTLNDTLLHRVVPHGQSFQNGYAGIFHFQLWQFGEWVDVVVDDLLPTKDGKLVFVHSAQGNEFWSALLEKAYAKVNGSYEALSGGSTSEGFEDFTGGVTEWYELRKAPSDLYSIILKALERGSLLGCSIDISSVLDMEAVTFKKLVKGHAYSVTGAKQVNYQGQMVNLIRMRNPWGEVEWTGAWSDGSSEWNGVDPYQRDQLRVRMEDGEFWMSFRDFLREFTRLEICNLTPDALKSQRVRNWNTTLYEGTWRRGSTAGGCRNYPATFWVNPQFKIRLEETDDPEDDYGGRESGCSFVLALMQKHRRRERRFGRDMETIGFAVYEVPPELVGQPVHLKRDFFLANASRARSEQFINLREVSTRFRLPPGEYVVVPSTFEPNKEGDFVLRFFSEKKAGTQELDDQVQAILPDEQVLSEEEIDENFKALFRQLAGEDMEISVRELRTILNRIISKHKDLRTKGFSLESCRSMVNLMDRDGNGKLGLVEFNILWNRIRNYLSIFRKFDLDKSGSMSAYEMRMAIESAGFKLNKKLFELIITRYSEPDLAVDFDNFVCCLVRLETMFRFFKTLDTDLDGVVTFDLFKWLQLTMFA
T1 sequence (P04574 1-266 partner): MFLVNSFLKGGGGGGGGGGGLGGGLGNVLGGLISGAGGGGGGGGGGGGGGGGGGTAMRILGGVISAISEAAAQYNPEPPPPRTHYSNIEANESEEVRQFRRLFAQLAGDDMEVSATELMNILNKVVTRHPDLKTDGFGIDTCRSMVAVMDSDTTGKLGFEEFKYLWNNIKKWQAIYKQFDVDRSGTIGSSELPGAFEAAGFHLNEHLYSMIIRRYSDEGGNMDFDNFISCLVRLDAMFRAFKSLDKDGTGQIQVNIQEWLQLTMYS
The experiment is described as follows: Enzyme activity test: inhibition of calpain (EnzCheck protease assay kit, BODIPY FL casein, fluorescence). Type of experiment: biochemical. The following applies: calpain I from porcine erythrocytes; BODIPY FL casein substrate; Tris-HCl pH 7.8; triplicate. The text has this:
The calpain inhibition capacity has been quantified in terms of the value of IC50, which is defined as the concentration of inhibitor that reduces the catalytic activity of an enzyme by half. The lower the value of IC50, the more powerful the inhibitor. Inhibition results on calpain I (the most relevant from a physiological point of view) of some compounds of the present invention are shown in table 1 and in FIG. 1. Given that calpain II, also known as milli-calpain, needs a greater amount of calcium for activation, it might not possibly have such a relevant physiological role since such a concentration of calcium would cause cell death before the milli-calpain could become activated. For this reason, the inhibition tests have been performed for calpain I, though they can be extrapolated for calpain II.
The calpain inhibition capacity has been quantified in terms of the value of IC50, which is defined as the concentration of inhibitor that reduces the catalytic activity of an enzyme by half. The lower the value of IC50, the more powerful the inhibitor. Inhibition results on calpain I (the most relevant from a physiological point of view) of some compounds of the present invention are shown in table 1 and in FIG. 1.
In order to carry out the inhibition test on calpains, we used the EnzCheck® Protease Assay Kit E-338 from Molecular Probes. This kit contains casein marked with BODIPY FL®, freeze-dried from phosphate buffer. Also used as a digestion buffer was Tris-HCl at pH 7.8, containing 2 mM of sodium azide. The calpain I from porcine erythrocytes or calpain II from porcine kidney that were used are commercial products from CALBIOCHEM®. The enzyme stock solution contained 20 mM of imidazol-HCl buffer, pH 6.8, 1 mM EDTA, 1 mM EGTA, 5 mM β-mercaptoethanol, 30% in glycerol.
The synthetic inhibitors were dissolved in 250 μL of DMSO. The tests were conducted on 96-well microplates in a final volume of 200 μL. In order to carry out the test, aliquots of stock solution of calpain were added to 150 μL of a 10 μg/μL solution in digestion buffer in order to obtain a final concentration of 50 ng/mL of enzyme. Minimum quantities were added, between 5 and 20 μL of inhibitor solution in DMSO, previously diluted in order to achieve the desired final concentration of inhibitor, and digestion buffer was added until a volume of 190 μL was achieved. The test commenced by adding 10 μL of 0.05 M CaCl2 solution. For each inhibitor, separate measurements excluding inhibitor, calpain and calcium solution were taken as blanks. All measurements were made in triplicate.
The fluorescence measurements were made in a SPECTRAFLUOR TECAN Corp 93382 spectrum fluorimeter, exciting at 485 nm and taking the reading at 530 nm. The measurement was made over 20 cycles until the measurement of all wells was completed. Stirring was orbital type and took place each cycle.
Take `COC(=O)[C@H](Cc1ccc(O)cc1)NC(=S)c1ccccc1-c1ccccc1C(=S)N[C@@H](Cc1ccc(O)cc1)C(=O)OC` [Compound 7]: the IC50 stood at 796 nM.
For the molecule `COC(=O)[C@@H](NC(=O)c1ccccc1-c1ccccc1C(=S)N[C@H](C(=O)OC)C(C)C)C(C)C` [Compound 6, Methyl (S,S)-2-{[2′-(1-methoxycarbonyl-2-methyl-propylthiocarbamoyl)-biphenyl-2-carbonyl]-amino}-3-methyl-butyrate], the half-maximal inhibitory concentration (IC50) worked out at 0.052 nM.
In turn, `COC(=O)[C@H](Cc1c[nH]c2ccccc12)NC(=S)c1ccccc1-c1ccccc1C(=S)N[C@@H](Cc1c[nH]c2ccccc12)C(=O)OC` [Compound 3, Methyl (S,S)-3-(1H-Indol-3-yl)-2-{[2′-(2-(1H-Indol-3-yl)-1-methoxycarbonyl-ethylthiocarbamoyl)-biphenyl-2-carbothioyl]-amino}-propionate] returned an IC50 of 0.038 nM.
With `COC(=O)[C@H](Cc1c[nH]c2ccccc12)NC(=O)c1ccccc1-c1ccccc1C(=S)N[C@@H](Cc1c[nH]c2ccccc12)C(=O)OC` [Compound 4, Methyl (S,S)-3-(1H-Indol-3-yl)-2-{[2′-(2-(1H-Indol-3-yl)-1-methoxycarbonyl-ethylthiocarbamoyl)-biphenyl-2-carbonyl]-amino}-propionate], the 50% inhibitory concentration (IC50) was 69 nM. Against the preceding molecule, the IC50 is about 1800-fold higher.
The value for `COC(=O)[C@H](Cc1ccc(O)cc1)NC(=O)c1ccccc1-c1ccccc1C(=S)N[C@@H](Cc1ccc(O)cc1)C(=O)OC` [Compound 8] was 12000 nM.
The value for `COC(=O)[C@H](Cc1ccccc1)NC(=O)c1ccccc1-c1ccccc1C(=S)N[C@@H](Cc1ccccc1)C(=O)OC` [Compound 2, Methyl (S,S)-3-phenyl-2-{[2′-(2-phenyl-1-methoxycarbonyl-ethylthio-carbamoyl)-biphenyl-2-carbonyl]-amino}-propionate] was 63000 nM.
Take `COC(=O)[C@H](Cc1ccccc1)NC(=S)c1ccccc1-c1ccccc1C(=S)N[C@@H](Cc1ccccc1)C(=O)OC` [Compound 1, Methyl (S,S)-3-phenyl-2-{[2′-(2-phenyl-1-methoxycarbonyl-ethylthio-carbamoyl)-biphenyl-2-carbothiol]-amino}—propionate]: the half-inhibitory concentration (IC50) was determined as 94000 nM.
Molecule `COC(=O)[C@@H](NC(=S)c1ccccc1-c1ccccc1C(=S)N[C@H](C(=O)OC)C(C)C)C(C)C` [Compound 5, Methyl (S,S)-2-{[2′-(1-methoxycarbonyl-2-methyl-propylthiocarbamoyl)-biphenyl-2-carbothioyl]-amino}-3-methyl-butyrate] showed an IC50 of 71 nM.

The values are drawn from patent US7476754B2, “Biphenyl derived thiamides as calpain inhibitors” (Consejo Superior de Investigaciones Cientificas, priority 2004, dated 2009).
